We go through 20 compounds from ChEMBL document CHEMBL1806418, “Azepanone-based inhibitors of human cathepsin S: optimization of selectivity via the P2 substituent” (Bioorg Med Chem Lett, 2011).

For orientation: IC50 means the concentration at which inhibition is half-maximal.

Test [1] has as its target T1, Cathepsin S (Homo sapiens, UniProt P25774). The test can be described thus: Inhibition of human recombinant cathepsin S using Ac-KQLR-AMC as substrate by fluorescence assay.
Test [2] has as its target T2, Cathepsin K (Homo sapiens, UniProt P43235).
T2 sequence (P43235 whole entry): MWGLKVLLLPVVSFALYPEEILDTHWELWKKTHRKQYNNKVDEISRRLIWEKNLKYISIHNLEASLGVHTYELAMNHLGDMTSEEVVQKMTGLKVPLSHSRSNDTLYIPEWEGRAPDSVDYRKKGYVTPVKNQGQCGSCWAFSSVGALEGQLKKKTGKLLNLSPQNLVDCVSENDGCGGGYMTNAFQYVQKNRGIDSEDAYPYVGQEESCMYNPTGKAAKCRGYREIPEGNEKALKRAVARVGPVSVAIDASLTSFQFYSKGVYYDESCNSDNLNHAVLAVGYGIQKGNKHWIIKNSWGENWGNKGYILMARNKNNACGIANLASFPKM
The test can be described thus: Inhibition of human recombinant cathepsin K using z-LR-AFC as substrate by fluorescence assay.

Test [3] concerns the target T3, Procathepsin L (Homo sapiens, UniProt P07711). Description: Inhibition of human recombinant cathepsin L using Z-LR-AMC as substrate by fluorescence assay.
The target of test [4] is T1, Cathepsin S. The test can be described thus: Inhibition of cathepsin S in human Raji cells assessed as decrease in cell surface expression of MHC class 2/CLIP by flow cytometric analysis. It counts as cell-based. On the technique in general: In flow cytometry, cells or beads pass a laser one at a time.
The target of test [5] is T1, Cathepsin S. The test can be described thus: Inhibition of human cathepsin S using Z-Lys-Gln-Lys-Leu-Arg-AMC as substrate after 1 hr by fluorescence assay. Conditions: read-out: Ki(app).
In test [6] the target is T2, Cathepsin K. The test can be described thus: Inhibition of human cathepsin K using Z-Lys-Gln-Lys-Leu-Arg-AMC as substrate after 1 hr by fluorescence assay. Conditions: read-out: Ki(app).
Test [7] concerns the target T3, Procathepsin L. The test can be described thus: Inhibition of human cathepsin L using Z-Phe-Arg-AMC as substrate after 1 hr by fluorescence assay. The conditions noted are these: read-out: Ki(app).

T1 sequence (P25774 whole entry): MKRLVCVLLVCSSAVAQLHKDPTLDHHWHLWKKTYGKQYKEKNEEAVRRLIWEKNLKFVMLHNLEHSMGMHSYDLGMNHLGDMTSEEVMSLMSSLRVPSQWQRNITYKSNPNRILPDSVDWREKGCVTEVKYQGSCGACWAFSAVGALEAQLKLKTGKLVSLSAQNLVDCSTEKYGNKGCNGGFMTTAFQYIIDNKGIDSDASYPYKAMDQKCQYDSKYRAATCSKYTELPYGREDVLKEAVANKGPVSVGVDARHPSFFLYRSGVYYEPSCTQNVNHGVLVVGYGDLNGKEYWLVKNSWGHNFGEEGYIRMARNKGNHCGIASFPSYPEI
T3 sequence (P07711 whole entry): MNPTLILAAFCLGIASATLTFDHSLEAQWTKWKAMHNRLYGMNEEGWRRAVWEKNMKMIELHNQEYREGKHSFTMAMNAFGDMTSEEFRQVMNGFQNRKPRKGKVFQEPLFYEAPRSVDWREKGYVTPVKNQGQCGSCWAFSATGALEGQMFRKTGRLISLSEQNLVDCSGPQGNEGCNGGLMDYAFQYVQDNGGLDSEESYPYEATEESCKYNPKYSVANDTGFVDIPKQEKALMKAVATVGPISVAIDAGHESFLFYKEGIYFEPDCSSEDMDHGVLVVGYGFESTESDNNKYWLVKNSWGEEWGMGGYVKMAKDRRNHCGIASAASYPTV

`C[C@@H]1CC[C@H](NC(=O)[C@H](CC(C)(C)C)NC(=O)c2ccco2)C(=O)CN1S(=O)(=O)c1ccccn1`: the IC50 on Cathepsin S [1] stood at 1.3 nM; on Cathepsin K [2], 4.7 nM; at Procathepsin L [3] it was 11.5 nM; at Cathepsin S [4], 4800 nM.
In the case of `C[C@@H]1CC[C@H](NC(=O)[C@H](CC2CCCC2)NC(=O)c2ccco2)C(=O)CN1S(=O)(=O)c1ccccn1`, the IC50 is 0.76 nM on Cathepsin S [1], 27.7 nM at Cathepsin K [2] and 4.8 nM on Procathepsin L [3].
On the same counts, the results for `C[C@@H]1CC[C@H](NC(=O)[C@H](CC23CCC(CC2)C3(C)C)NC(=O)N2CCOCC2)C(=O)CN1S(=O)(=O)c1ccccn1` are 1.5 nM, 174 nM and 139 nM.
Consider `C[C@@H]1CC[C@H](NC(=O)[C@H](CCC2CCCC2)NC(=O)c2ccco2)C(=O)CN1S(=O)(=O)c1ccccn1`, for which the IC50 at Cathepsin S [1] amounted to 1.9 nM; on Cathepsin K [2], 840 nM; at Procathepsin L [3], 10.7 nM.
On to `CC1CCC(C[C@H](NC(=O)c2ccco2)C(=O)N[C@H]2CC[C@@H](C)N(S(=O)(=O)c3ccccn3)CC2=O)CC1` (stereo not given in full), for which the IC50 came to 0.5 nM at Cathepsin S [1], 450 nM on Cathepsin K [2] and 1 nM on Procathepsin L [3].
The corresponding values for `C[C@@H]1CC[C@H](NC(=O)[C@H](CC2CCC(C)(C)CC2)NC(=O)c2ccco2)C(=O)CN1S(=O)(=O)c1ccccn1` are 1.2 nM, 6200 nM and 58.5 nM.
On the same counts, the results for `C[C@@H]1CC[C@H](NC(=O)[C@H](CC2=CCCC2)NC(=O)c2ccco2)C(=O)CN1S(=O)(=O)c1ccccn1` are 4.9 nM, 9 nM and 3.8 nM.
Turning to `C[C@@H]1CC[C@H](NC(=O)[C@H](CC2(C)CCCC2)NC(=O)c2ccco2)C(=O)CN1S(=O)(=O)c1ccccn1`, the results for the IC50 at Cathepsin S [1], at Cathepsin K [2] and at Procathepsin L [3] were less than 0.4 nM, 11.2 nM and 22.4 nM, respectively.
Turning to `C[C@@H]1CC[C@H](NC(=O)[C@H](CC2(C)CCCCC2)NC(=O)N2CCOCC2)C(=O)CN1S(=O)(=O)c1ccccn1`, the IC50 is less than 0.4 nM at Cathepsin S [1], 136 nM at Cathepsin K [2], 48.7 nM at Procathepsin L [3] and 570 nM on Cathepsin S [4].
In the case of `CC(C)C[C@H](NC(=O)c1cc2cc(OCCN3CCOCC3)ccc2o1)C(=O)N[C@H]1CCCN(C(=O)Cc2cccc(-c3ccccn3)c2)CC1=O`, the values for the Ki on Cathepsin S [5], at Cathepsin K [6] and on Procathepsin L [7] were 8.3 nM, 0.1 nM and 1.2 nM, respectively. The IC50 at Cathepsin S [1] was 8.3 nM; on Cathepsin S [4], 940 nM.
As for `C[C@@H]1CC[C@H](NC(=O)[C@@H](CC2(C)CCCC2)NC(=O)c2ccco2)C(=O)CN1S(=O)(=O)c1ccccn1`, the IC50 on Cathepsin S [1] is 101 nM; at Cathepsin K [2], 1900 nM; on Procathepsin L [3], 4400 nM.
The corresponding values for `C[C@@H]1CC[C@H](NC(=O)[C@@H](CC2(C)CCCCC2)NC(=O)c2ccco2)C(=O)CN1S(=O)(=O)c1ccccn1` are 37 nM, 2300 nM and 1700 nM.
Regarding `C[C@@H]1CC[C@H](NC(=O)[C@H](CC2(C)CCCCC2)NC(=O)c2ccco2)C(=O)CN1S(=O)(=O)c1ccccn1`, the IC50 was less than 0.4 nM on Cathepsin S [1], 44.5 nM at Cathepsin K [2], 31.9 nM at Procathepsin L [3] and 1400 nM at Cathepsin S [4].
Consider `C[C@@H]1CC[C@H](NC(=O)[C@H](CC2(C)CCCCC2)NC(=O)c2ccco2)C(=O)CN1C(=O)c1ccccn1`, for which the half-maximal inhibitory concentration (IC50) at Cathepsin S [1] was 1.5 nM; at Cathepsin K [2] it was 263 nM; at Procathepsin L [3], 429 nM; on Cathepsin S [4] it was 3880 nM.
For the compound `C[C@@H]1CC[C@H](NC(=O)[C@H](CC2CCCCC2)NC(=O)c2ccco2)C(=O)CN1S(=O)(=O)c1ccccn1`, the IC50 at Cathepsin S [1] came out at 0.5 nM; at Cathepsin K [2], 40.5 nM; at Procathepsin L [3], 1.2 nM; at Cathepsin S [4], 1780 nM.
For `O=C(N[C@@H](Cc1ccc2ccccc2c1)C(=O)N[C@H]1CCCN(S(=O)(=O)c2ccccn2)CC1=O)c1cccc2ccccc12`, the Ki on Cathepsin K [6] is more than 10000 nM.
In the case of `CC(C)C[C@H](NC(=O)c1ccco1)C(=O)N[C@H]1CC[C@@H](C)N(C(=O)c2ccccn2)CC1=O`, the IC50 on Cathepsin S [1] amounted to 31.6 nM; at Cathepsin K [2] it was 10 nM; at Procathepsin L [3], 10 nM.
Take `C[C@@H]1CC[C@H](NC(=O)[C@H](CC2CCCCCC2)NC(=O)c2ccco2)C(=O)CN1S(=O)(=O)c1ccccn1`: the IC50 on Cathepsin S [1] was less than 0.4 nM; on Cathepsin K [2], 28.2 nM; at Procathepsin L [3], less than 0.4 nM.
Regarding `C[C@@H]1CC[C@H](NC(=O)[C@H](CCC2CCCC2)NC(=O)N2CCOCC2)C(=O)CN1S(=O)(=O)c1ccccn1`, the IC50 was 0.58 nM on Cathepsin S [1], 1100 nM at Cathepsin K [2] and 10.8 nM at Procathepsin L [3].
The corresponding values for `CC(C)C[C@H](NC(=O)c1ccco1)C(=O)N[C@H]1CC[C@@H](C)N(S(=O)(=O)c2ccccn2)CC1=O` are 2.9 nM, 1 nM and 0.53 nM.
